Data published in patent US20240238274A1, “INHIBITORS OF UBIQUITIN SPECIFIC PEPTIDASE 22 (USP22) AND USES THEREOF FOR TREATING DISEASE AND DISORDERS” (Northwestern University, priority 2021, published 2024).

Columns and labels:
LLC1 tumors = assay: Established LLC1 tumors in Rag−/− mice; assay type: in vivo; conditions: Rag−/− mice with established LLC1 tumors, treated 3 days
Procedure: FIG. 17: Usp22i-S02 inhibits tumor growth in vitro and in vivo. A, In vitro counts of LLC1 after treatment with Usp22i-S02 under various concentrations for 24 hours (n=2). B, In vitro viability of LLC1 after treatment with Usp22i-S02 under various concentrations for 24 hours (n=2). C, In vitro relative growth of LLC1 cells treated with 10 ug/ml of Usp22i-S02 relative to DMSO treated control for 7 days via OD600 (n=4). D, Growth curve of 1 million subcutaneously injected LLC1 cells into RAG−/− mice treated for 3 days Usp22i-S02 relative to DMSO control injections at day 15 of tumor growth (n=4). C-D, Two-way ANOVA with Sidaks's multiple comparisons between rows relative to control was performed to determine statistical significance. All data are presented as mean±stdev. NS, not significant. *P<0.05, **P<0.01, ***P<0.001, ****P<0.0001.
As Usp22 is also an important oncogene (43, 44), we were interested in the potential dual-therapeutic function of Usp22i-S02.

naïve mice = assay: In vivo toxicity and Treg phenotype in naïve mice
Procedure: D, Graphical representation of Foxp3 MFI upon Usp22i-S02 administration (n=5). E, Tumor growth curve of LLC1 cells subcutaneously injected in the flank of WT mice with or without the addition of 20 mg/kg/time of the Usp22 inhibitor starting at day 15, in 100 μL of oil (n=4). F-G, Representative flow cytometry plot and graphical representation of % infiltration of CD4+ and CD8+ T cells within the tumor (n=4). […] I, MFI of itTreg suppressive markers (n=3-4). […] B, D-E, G, H-I Two-way ANOVA with multiple comparisons between rows was performed to determine statistical significance. J, Unpaired two tailed T test was performed to determine significance. All data are presented as mean±stdev. NS, not significant. *P<0.05, **P<0.01, ***P<0.001, ****P<0.0001.
A, Body weight of Usp22i-S02 treated mice verses DMSO treated controls over the course of treatment (n=4). […] B, Percent of cell populations in naïve mice treated with Usp22i-S02 relative to DMSO control (n=3-4). […] E, Percent Annexin+PI+ T cells gates on CD45+ cells in naïve mice treated with Usp22i-S02 relative to DMSO control (n=4). F-H, Organ toxicity panel (VetScan VS2 Comprehensive Diagnostic Rotor lot 1061AA2) of naïve mice treated with Usp22i-S02 relative to DMSO control (n=2-3). […] J, Weights of resected tumors at day 16 from I (n=10). K-L, Representative flow plot and graphical representation of infiltrating T cells gated on CD45+ cells (n=5). […] Q, Percent of intratumoral Treg cells from mice treated with Usp22i-S02 verses DMSO control, gated on CD4+Foxp3+ from mice (n=5). A-E, I and L, Two-way ANOVA with Sidaks's multiple comparisons between rows relative to control was performed to determine statistical significance. F-H, J, and M-Q, Two-tailed unpaired t-test was performed to determine statistical significance. All data are presented as mean±stdev. NS, not significant. *P<0.05, **P<0.01, ***P<0.001, ****P<0.0001.
An important aspect of a potential immunotherapeutic is its antitumor functionality paired with low immune toxicity. To determine the toxicity of Usp22i-S02 in vivo, we first determined its effects in naïve mice.

N#Cc1c2c(c(Nc3ccccc3)n3c1nc1ccccc13)CCCC2 [Chemical S02, 11-anilino-7,8,9,10-tetrahydro-benzimidazo [1,2-b] isoquinoline-6-carbonitrile]
tumor growth (LLC1 tumors): small but statistically significant decrease in tumor growth | FOXP3 MFI in Treg cells from the spleen and lymph nodes (naïve mice; WT mice, 20 mg/kg in vivo): significant drop in FOXP3 MFI | Treg cell death (naïve mice; naïve mice vs DMSO control): significantly increased | organ toxicity (comprehensive tissue panel) (naïve mice; naïve mice vs DMSO-treated control): no organ toxicity differences | weights, B cell and Teff cell percentages and proliferation, Teff cell activation (naïve mice; naïve mice vs DMSO-treated control, 10 mg/kg twice a day for 3 days): little alteration
